One test deals with CYP2D6 (Homo sapiens, UniProt P10635). Description: Cytochrome P450 isozyme inhibition, fluorescent Vivid substrate. The class given is in vitro ADME. To be noted: 20 nM CYP2D6, 10 μM Vivid 2D6 Blue, 60 minutes. On the procedure: (§1) Selected compounds of the invention were assayed for their ability to inhibit various cytochrome P450 isozymes, such as, for example CYP2D6, CYP2C9, CYP1A2, CYP2C19, CYP3A4, CYP2C9, and CYP3A4 (human liver microsome). Such assays are described by Crespi et al., Anal. Biochem. 248:188-90, 1997; Ekins et al., J. Pharmacol. Exp. Ther. 290, 429-38, 1999; and Ekins et al., J. Pharmacol. Exp. Ther. 291, 424-33, 1999. In a typical isozyme inhibition experiment, test compounds are placed into a microwell on a microtiter plate as an 8 nL solution (2 mM in 75% DMSO/water). The plate is centrifuged for 2 minutes at approximately 1000 rpm to shift the compound to the bottom of the well. Polyvinylpyrrolidone (PVP/10K, 100 nL, 0.2% in 75% DMSO/water) is added to the well and this excipient also centrifuged for 2 minutes at approximately 1000 rpm to ensure mixing with the compound. The plates containing the wells are dried in vacuo. Distilled water (800 nL) is added to the wells containing compound, the background control wells, and the positive control wells, followed by the addition of 200 nL of phosphate buffer (500 mM potassium phosphate butter at pH=8.4). The positive control cells contain a drug such as, for example, miconazole. Insect baculosomes (PanVera P2315) in […] phosphate buffer was added to the background control wells and the plate was scanned for compound fluorescence. […] Therefore, CYP450 isozyme (400 nL) and recycling buffer (3.3 mM glucose-6-phosphate, 0.4 units/mL glucose-6-phosphate dehydrogenase, 100 mM MgCl2, and 0.00025% Antifoam 289) in 100 mM phosphate buffer was added to each well containing compound and background control to obtain the following concentrations: 5 nM CYP3A4, 10 nM CYP2C9, 5 nM CYP1A2, 5 nM CYP2C19, and 20 nM CYP2D6. After incubation for 60 minutes, the wells were read with a fluorescent plate reader.

In another test the target is CYP2C9 (Homo sapiens, UniProt P11712). Described as above. It is filed as in vitro ADME. To be noted: 10 nM CYP2C9, 1 μM Vivid 2C9 Green, 60 minutes. On the procedure:
as §1

For another test, the target named is T1, CYP1A2 (Homo sapiens, UniProt P05177).
T1 sequence (P05177 1-516): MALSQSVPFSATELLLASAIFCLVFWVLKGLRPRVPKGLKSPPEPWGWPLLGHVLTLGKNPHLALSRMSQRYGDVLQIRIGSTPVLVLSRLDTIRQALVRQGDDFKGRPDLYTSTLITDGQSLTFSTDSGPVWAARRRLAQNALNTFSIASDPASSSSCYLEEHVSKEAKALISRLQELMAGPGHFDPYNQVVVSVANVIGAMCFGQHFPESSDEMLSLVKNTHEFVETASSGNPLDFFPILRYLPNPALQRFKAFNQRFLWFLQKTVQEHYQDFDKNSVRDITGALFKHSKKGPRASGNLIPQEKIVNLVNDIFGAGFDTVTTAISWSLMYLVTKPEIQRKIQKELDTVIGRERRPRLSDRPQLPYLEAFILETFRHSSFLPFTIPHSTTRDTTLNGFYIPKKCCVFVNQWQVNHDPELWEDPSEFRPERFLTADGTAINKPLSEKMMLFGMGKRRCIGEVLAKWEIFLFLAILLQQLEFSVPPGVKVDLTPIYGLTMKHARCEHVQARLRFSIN
The test is described as above. The class given is in vitro ADME. Particulars: 5 nM CYP1A2, 2 μM Vivid 1A2 Blue, 60 minutes. On the procedure: as §1

Another test addresses CYP2C19 (Homo sapiens, UniProt P33261). The description is as above. It is filed as in vitro ADME. To be noted: 5 nM CYP2C19, 10 μM Vivid 2C19 Blue, 60 minutes. On the procedure: as §1
Another test deals with T2, ROCK I (AA 6-553) (Homo sapiens, UniProt Q13464).
T2 construct: ROCK I (AA 6-553)
Description: ROCK inhibition assay, standard coupled enzyme system. It is filed as biochemical. To be noted: 45 nM ROCK I, 45 μM ATP, 200 μM peptide, 30° C. On the procedure: Reactions were carried out in a solution containing 100 mM HEPES (pH 7.5), 10 mM MgCl2, 25 mM NaCl, 2 mM DTT and 1.5% DMSO.

Test [1] addresses T3, CYP3A4 (human liver microsome) (Homo sapiens, UniProt P08684).
T3 construct: CYP3A4 (human liver microsome); from tissue; host or cells: human liver microsomes
Kind of test: Cytochrome P450 inhibition, human liver microsome. Particulars: read-out: CYP3A4 (HLM) Ki. It is filed as in vitro ADME. On the procedure: (§2) Selected compounds of the invention were assayed for their ability to inhibit various cytochrome P450 isozymes, such as, for example CYP2D6, CYP2C9, CYP1A2, CYP2C19, CYP3A4, CYP2C9, and CYP3A4 (human liver microsome). Such assays are described by Crespi et al., Anal. Biochem. 248:188-90, 1997; Ekins et al., J. Pharmacol. Exp. Ther. 290, 429-38, 1999; and Ekins et al., J. Pharmacol. Exp. Ther. 291, 424-33, 1999. […] The plate is centrifuged for 2 minutes at approximately 1000 rpm to shift the compound to the bottom of the well. […] Distilled water (800 nL) is added to the wells containing compound, the background control wells, and the positive control wells, followed by the addition of 200 nL of phosphate buffer (500 mM potassium phosphate butter at pH=8.4). The positive control cells contain a drug such as, for example, miconazole. […] After incubation for 60 minutes, the wells were read with a fluorescent plate reader.
For orientation: Liver microsomes are a subcellular fraction often used to study metabolism.

In another test the target is CYP3A4 (Homo sapiens, UniProt P08684). Kind of test: Cytochrome P450 isozyme inhibition, fluorescent Vivid substrate. The class given is in vitro ADME. Particulars: 5 nM CYP3A4, 5 μM Vivid 3A4 Red, 60 minutes. On the procedure:
as §2, with “miconazole. Insect baculosomes (PanVera […]) in […] phosphate buffer was added to the background control wells and the plate was scanned for compound fluorescence.” for “miconazole.”

T2 sequence (Q13464 6-553, species assumed): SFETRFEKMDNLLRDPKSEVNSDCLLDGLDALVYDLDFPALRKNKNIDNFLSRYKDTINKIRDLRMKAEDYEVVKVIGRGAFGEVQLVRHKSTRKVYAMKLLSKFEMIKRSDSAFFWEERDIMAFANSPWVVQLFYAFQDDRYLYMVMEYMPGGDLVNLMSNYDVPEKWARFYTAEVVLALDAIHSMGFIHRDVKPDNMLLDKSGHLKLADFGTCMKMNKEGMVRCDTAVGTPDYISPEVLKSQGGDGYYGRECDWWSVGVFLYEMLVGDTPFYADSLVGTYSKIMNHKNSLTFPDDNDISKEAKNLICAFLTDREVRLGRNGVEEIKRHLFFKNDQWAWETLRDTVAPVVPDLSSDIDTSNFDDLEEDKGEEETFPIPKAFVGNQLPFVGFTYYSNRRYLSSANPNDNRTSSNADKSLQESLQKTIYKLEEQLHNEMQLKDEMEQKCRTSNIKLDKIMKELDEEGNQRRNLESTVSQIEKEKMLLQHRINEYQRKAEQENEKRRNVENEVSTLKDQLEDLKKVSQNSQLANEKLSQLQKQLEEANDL
Chain of CYP3A4 (P08684 whole entry): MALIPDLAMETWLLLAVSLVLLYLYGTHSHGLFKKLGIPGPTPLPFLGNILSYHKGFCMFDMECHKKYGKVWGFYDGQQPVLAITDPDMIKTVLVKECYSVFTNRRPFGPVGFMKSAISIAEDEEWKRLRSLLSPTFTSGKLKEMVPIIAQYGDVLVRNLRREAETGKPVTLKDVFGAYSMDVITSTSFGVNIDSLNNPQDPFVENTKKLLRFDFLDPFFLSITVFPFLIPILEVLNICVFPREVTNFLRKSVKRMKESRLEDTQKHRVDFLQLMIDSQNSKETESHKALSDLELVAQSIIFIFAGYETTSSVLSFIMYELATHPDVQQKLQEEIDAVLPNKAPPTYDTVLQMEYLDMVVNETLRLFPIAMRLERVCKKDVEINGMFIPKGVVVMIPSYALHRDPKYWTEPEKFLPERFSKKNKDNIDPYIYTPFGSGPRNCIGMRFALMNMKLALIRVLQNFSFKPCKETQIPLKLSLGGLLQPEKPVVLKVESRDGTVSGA
T3 sequence (P08684 whole entry): as above
Chain of CYP2C9 (P11712 whole entry): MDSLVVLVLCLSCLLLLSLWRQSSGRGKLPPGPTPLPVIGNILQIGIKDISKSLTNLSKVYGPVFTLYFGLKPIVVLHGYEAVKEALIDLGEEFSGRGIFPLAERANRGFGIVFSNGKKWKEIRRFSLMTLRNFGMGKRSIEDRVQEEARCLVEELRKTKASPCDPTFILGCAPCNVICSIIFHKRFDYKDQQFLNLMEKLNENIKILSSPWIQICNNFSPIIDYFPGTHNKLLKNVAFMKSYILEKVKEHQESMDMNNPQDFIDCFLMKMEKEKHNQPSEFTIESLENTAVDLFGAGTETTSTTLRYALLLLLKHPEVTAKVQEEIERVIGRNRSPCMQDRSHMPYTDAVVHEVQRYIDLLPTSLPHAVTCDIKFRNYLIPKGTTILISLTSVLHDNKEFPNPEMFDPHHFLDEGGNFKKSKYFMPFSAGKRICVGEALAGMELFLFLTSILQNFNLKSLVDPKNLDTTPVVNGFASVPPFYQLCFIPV
Chain of CYP2C19 (P33261 whole entry, the tested form may be a part): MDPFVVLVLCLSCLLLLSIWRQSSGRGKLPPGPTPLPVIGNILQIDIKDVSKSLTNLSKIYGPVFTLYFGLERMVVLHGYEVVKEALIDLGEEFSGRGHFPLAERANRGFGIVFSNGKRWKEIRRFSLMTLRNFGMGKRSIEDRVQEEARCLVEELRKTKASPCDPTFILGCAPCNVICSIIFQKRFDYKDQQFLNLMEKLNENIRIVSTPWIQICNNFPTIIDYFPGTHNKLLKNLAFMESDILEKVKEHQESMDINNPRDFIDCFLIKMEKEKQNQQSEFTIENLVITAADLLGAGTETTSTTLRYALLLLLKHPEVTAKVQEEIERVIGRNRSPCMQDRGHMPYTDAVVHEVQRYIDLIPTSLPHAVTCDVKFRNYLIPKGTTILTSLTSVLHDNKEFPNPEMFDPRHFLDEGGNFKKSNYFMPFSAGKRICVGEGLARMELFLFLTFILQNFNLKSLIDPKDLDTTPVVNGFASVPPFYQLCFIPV
Chain of CYP2D6 (P10635 whole entry): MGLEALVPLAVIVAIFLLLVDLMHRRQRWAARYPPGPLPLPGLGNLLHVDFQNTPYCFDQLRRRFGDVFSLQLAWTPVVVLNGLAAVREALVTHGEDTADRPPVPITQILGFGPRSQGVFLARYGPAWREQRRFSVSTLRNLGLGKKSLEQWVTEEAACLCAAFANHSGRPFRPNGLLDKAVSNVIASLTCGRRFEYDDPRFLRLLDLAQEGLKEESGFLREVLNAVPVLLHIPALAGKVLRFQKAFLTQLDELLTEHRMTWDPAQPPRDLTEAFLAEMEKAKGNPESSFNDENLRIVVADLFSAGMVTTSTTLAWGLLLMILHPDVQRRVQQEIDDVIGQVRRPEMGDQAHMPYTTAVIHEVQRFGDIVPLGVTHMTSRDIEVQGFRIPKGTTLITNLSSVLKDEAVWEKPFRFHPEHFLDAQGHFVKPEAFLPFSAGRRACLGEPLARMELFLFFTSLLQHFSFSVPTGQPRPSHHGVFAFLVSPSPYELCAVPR

Take `COc1cccc(CC(=O)Nc2cc(-c3ccnc(C)c3)cs2)c1` [Compound 80]: the inhibitory constant (Ki) at CYP2D6 is greater than 10 µM; on CYP2C9 it was 1 to 10 µM; on CYP1A2, greater than 10 µM; at CYP2C19, 1 to 10 µM; at ROCK I (AA 6-553), 0.1 to 1 µM; in test [1], 1 to 10 µM. On CYP3A4, this compound registered a Ki of 1 to 10 µM.

As to `Cc1cc(-c2csc(NC(=O)Cc3cccc(O)c3)c2)ccn1` [Compound 85], the Ki was greater than 10 µM on CYP2D6; greater than 10 µM on CYP2C9; greater than 10 µM at CYP1A2; 1 to 10 µM at CYP2C19; less than 0.1 µM on ROCK I (AA 6-553); greater than 10 µM in test [1]. Also, the Ki on CYP3A4 is greater than 10 µM.

Consider `CN1CCN(CCCOc2cccc(CC(=O)Nc3cc(-c4ccnc(F)c4)cs3)c2)CC1` [Compound 74], for which the inhibition constant Ki on CYP2D6 was greater than 10 µM; at CYP2C9, greater than 10 µM; at CYP1A2 it was greater than 10 µM; on CYP2C19, greater than 10 µM; at ROCK I (AA 6-553), less than 0.1 µM; in test [1], greater than 10 µM. Moreover, at CYP3A4, the inhibitory constant (Ki) is greater than 10 µM.

Regarding `O=C(Cc1cccc(OCCCN2CCNCC2)c1)Nc1cc(-c2ccnc(Cl)c2)cs1` [Compound 102], the inhibition constant (Ki) on CYP2D6 was greater than 10 µM; at CYP2C9 it was greater than 10 µM; on CYP1A2, greater than 10 µM; at CYP2C19, 1 to 10 µM; at ROCK I (AA 6-553), less than 0.1 µM; in test [1], greater than 10 µM. The compound also showed a Ki on CYP3A4 of 1 to 10 µM.

With `O=C(Cc1cc2c(cc1Cl)OCO2)Nc1cc(-c2ccnc(Cl)c2)cs1` [Compound 105], the Ki was less than 1 µM at CYP2D6; 1 to 10 µM on CYP2C9; 1 to 10 µM on CYP1A2; less than 1 µM at CYP2C19; less than 0.1 µM on ROCK I (AA 6-553); 1 to 10 µM in test [1]. Further, on CYP3A4, the Ki was 1 to 10 µM.

As for `Nc1cc(-c2csc(NC(=O)Cc3cccc(OCCCC4CCNCC4)c3)c2)ccn1` [Compound 77], the Ki is less than 1 µM on CYP2D6; 1 to 10 µM on CYP2C9; greater than 10 µM at CYP1A2; 1 to 10 µM at CYP2C19; less than 0.1 µM on ROCK I (AA 6-553); 1 to 10 µM in test [1]. At CYP3A4, the inhibition constant (Ki) was in the range of 1 to 10 µM.

Regarding `CN1CCN(CCCOc2cccc(CC(=O)Nc3cc(-c4ccnc(Cl)c4)cs3)c2)CC1` [Compound 103], the inhibition constant (Ki) on CYP2D6 was greater than 10 µM; at CYP2C9, greater than 10 µM; on CYP1A2 it was greater than 10 µM; on CYP2C19, greater than 10 µM; at ROCK I (AA 6-553), less than 0.1 µM; in test [1] it was greater than 10 µM. At CYP3A4, the inhibition constant Ki was greater than 10 µM.

Broadly, the Ki is the dissociation constant of the complex between target and ligand, obtained from inhibition or displacement.
